# Laboratory results reported in patent publication US7598234B2, “Steroid derived antibiotics” (Brigham Young University, priority 1998, dated 2009).
# What was measured:
# [1] = system: E. coli (ATCC 10798); assay: Sensitization to novobiocin (concentration lowering the MIC of novobiocin), E. coli (ATCC 10798); format: cell-based, Escherichia coli; settings: Table 3, E. coli (ATCC 10798)
# Description: (§1) Alternatively, “fractional inhibitory concentration (FIC)” is also useful for determination of synergy between the compounds of the invention, or the compounds in combination with known antibiotics. FICs can be performed by checkerboard titrations of compounds in one dimension of a microtiter plate, and of antibiotics in the other dimension, for example. The FIC is calculated by looking at the impact of one antibiotic on the MIC of the other and vice versa. […] Preferably, an FIC of less than 0.5 is obtained for synergism. As used herein, FIC can be determined as follows:
# (§2) Aliquots of 1 mL of the suspension were added to test tubes containing 1 mL TSB and incrementally varied concentrations of cholic acid derivatives and/or erythromycin or novobiocin. In the sensitization experiments, erythromycin or novobiocin were added 15 minutes later than the cholic acid derivatives. The samples were subjected to stationary incubation at 37° C. for 24 hours. Sample turbidity was determined by measuring absorption at 760 nm (HP 8453 UV-Visible Chemstation, Hewlett Packard). Additionally, an alliquot from each of the samples showing no measurable turbidity was subcultured on TSA plates (alliquots were diluted to provide fewer than 300 CFU). Colonies that grew on the subculture after overnight incubation were counted and the number of CFU/mL in the samples were calculated. The calculated values were compared to the number of CFU/mL in the original inoculum.
# (§3) Ability to permeabilize outer membrane: Compounds 11, 106, and 108-114 (FIG. 1) were tested for antibiotic activity. They were also tested for the ability to permeabilize the outer membrane of Gram-negative bacteria, causing sensitization to hydrophobic antibiotics that cannot cross the outer membrane. The permeabilization of the outer membrane was measured using erythromycin and novobiocin.
# (§4) The MICs of erythromycin and novobiocin against E. coli (ATCC 10798) at 70 and >500 μg/mL were measured.
# [2] = system: Pseudomonas aeruginosa (ATCC 27853); assay: Sensitization to erythromycin, Pseudomonas aeruginosa (ATCC 27853); format: cell-based
# Description: as §1
# as §2, with “inoculum. […]” for “inoculum.”
# (§5) To measure permeabilization, the FIC values for compounds 1, 2, 5, 106, 10, 112, 133, and 134 with erythromycin, novobiocin, and rifampicin were determined. Concentrations of 0.5, 1.0 or 3.0 μg/mL of these antibiotics were used, and the concentrations of the cholic acid derivatives required to inhibit bacterial growth of Gram-negative strains were determined.
# [3] = system: E. coli (ATCC 25922); assay: Sensitization to erythromycin, E. coli (ATCC 25922); format: cell-based, Escherichia coli
# Description: FICs can be performed by checkerboard titrations of compounds in one dimension of a microtiter plate, and of antibiotics in the other dimension, for example. The FIC is calculated by looking at the impact of one antibiotic on the MIC of the other and vice versa. […] Preferably, an FIC of less than 0.5 is obtained for synergism. As used herein, FIC can be determined as follows:
# as §2
# Concentrations of 0.5, 1.0 or 3.0 μg/mL of these antibiotics were used, and the concentrations of the cholic acid derivatives required to inhibit bacterial growth of Gram-negative strains were determined.
# (§6) Minimum inhibition concentrations (MIC) and minimum hemolytic concentrations (MHC) were measured as described in Li et al., Antimicrob. Agents. Chemother., 1999, 43, 1347.
# [4] = system: Enterococcus faecalis ATCC 29212; assay: MIC and MBC measurement with Enterococcus faecalis ATCC 29212; format: cell-based; settings: Table 10
# Excerpt: (§7) General: Microorganisms. Reference strains were purchased from the American Type Culture Collection (Rockville, Md.) or Bactrol disks from Difeo Laboratories (Detroit, Mich.). The following specific ATCC strains were used: 10798 Escherichia coli, 25922 Escherichia coli, 13883 Klebsiella pneumoniae, 27853 Pseudomonas aeruginosa, 14028 Salmonella typhimurium, 29212 Enterococcus faecalis, 25923 Staphylococcus aureus, 19615 Streptococcus pyogenes, and 90028 Candida albicans. Bacterial strains were maintained on Mueller-Hinton agar plates, and Candida albicans was maintained on Sabouraud Dextrose agar plates.
# (§8) Tryptic soy broth (TSB) was made by dissolving 27.5 grams of tryptic soy broth without dextrose (DIFCO Laboratories) in 1 liter of deionized water and sterilizing at 121° C. for 15 minutes. Solid agar (TSA) plates were made by dissolving 6.4 grams of tryptic soy broth and 12 grams of agar (purified grade, Fischer Scientific) in 800 mL of deionized water and sterilizing at 121° C. for 20 minutes. Aliquots (20 mL) of the homogeneous solution were then poured in sterile plastic petri dishes (100×15 mm, Fisher Scientific). Solutions of compounds were made by dissolving the HCl salt of the respective compound into an appropriate amount of deionized and sterilized water followed by microfiltration.
# as §2
# [5] = system: E. coli (ATCC 25922); assay: MIC and MBC measurement with E. coli (ATCC 25922); format: cell-based, Escherichia coli
# Excerpt: as §7, §8
# as §2, with “inoculum. […]” for “inoculum.”
# [6] = system: E. coli (ATCC 10798); assay: Sensitization to erythromycin (concentration lowering the MIC of erythromycin), E. coli (ATCC 10798); format: cell-based, Escherichia coli; settings: Table 2, E. coli (ATCC 10798)
# Description: as §1, §2, §3, §4
# [7] = system: Staphylococcus aureus ATCC 25923; assay: MIC and MBC measurement with Staphylococcus aureus ATCC 25923; format: cell-based; settings: Table 10; Staphylococcus aureus ATCC 25923
# Excerpt: as §7, §8
# as §2, with “inoculum. […]” for “inoculum.”
# [8] = Description: as §6
# [9] = system: Pseudomonas aeruginosa (ATCC 27853); assay: Sensitization to novobiocin, Pseudomonas aeruginosa (ATCC 27853); format: cell-based; settings: Table 8; P. aureginosa (ATCC 27853)
# Description: as §1
# as §2, with “inoculum. […]” for “inoculum.”
# as §5
# [10] = system: Candida albicans ATCC 90028; assay: MIC and MBC measurement with Candida albicans ATCC 90028; format: cell-based; settings: Table 10
# Excerpt: as §7, §8, §2
# [11] = system: Klebsiella pneumonia ATCC 13883; assay: MIC and MBC measurement with Klebsiella pneumoniae ATCC 13883; format: cell-based; settings: Table 10
# Excerpt: as §7, §8, §2
# [12] = system: Streptococcus pyrogenes ATCC 19615; assay: MIC and MBC measurement with Streptococcus pyogenes ATCC 19615; format: cell-based; settings: Table 10
# Excerpt: as §7, §8, §2
# [13] = system: Pseudomonas aeruginosa (ATCC 27853); assay: MIC and MBC measurement with Pseudomonas aeruginosa (ATCC 27853); format: cell-based
# Excerpt: as §7, §8, §2
# [14] = system: E. coli (ATCC 10798); assay: MIC and MBC measurement with E. coli (ATCC 10798); format: cell-based, Escherichia coli; settings: Table 1; E. coli (ATCC 10798)
# Excerpt: as §7, §8, §2
# [15] = system: Salmonella typhimurium ATCC 14028; assay: MIC and MBC measurement with Salmonella typhimurium ATCC 14028; format: cell-based; settings: Table 10
# Excerpt: as §7, §8, §2
# [16] = system: Gram-negative bacteria; assay: MIC of ester and amide side chain compounds (Table 14); format: cell-based; settings: strain not given
# Description: as §2
# (§9) Ester and amide side chains: Additional compounds, for example, compounds with amide and ester side chains, were tested.
# [17] = system: Gram-negative bacteria; assay: Sensitization to erythromycin, ester and amide side chain compounds (Table 14); format: cell-based; settings: Table 14; strain not given
# Description: as §2, §3, §9
# [18] = system: Gram-negative bacteria; assay: Sensitization to novobiocin, ester and amide side chain compounds (Table 14); format: cell-based; settings: strain not given
# Description: as §2, §3, §9
# [19] = Table 10, Escherichia coli ATCC 25922
# [20] = Table 6, P. aureginosa (ATCC 27853)
# [21] = Table 10, Pseudomonas aeruginosa ATCC 27853
smiles,measurement,setting,value
C[C@H](CCCN(C)Cc1ccccc1)[C@H]1CC[C@H]2[C@@H]3[C@H](OCCCNC(=N)N)C[C@@H]4C[C@H](OCCCNC(=N)N)CC[C@]4(C)[C@H]3C[C@H](OCCCNC(=N)N)[C@]12C [Compound 5],MIC: concentration required to lower the MIC of novobiocin from >500 μg/mL to 1 μg/mL,[1],2 µg/mL
same,MBC (with novobiocin),[1]; novobiocin sensitization,4 µg/mL
same,MIC: concentration required to lower the MIC of erythromycin from 240 μg/mL to 5 μg/mL,"[2]; Table 7, P. aureginosa (ATCC 27853)",3 µg/mL
same,MBC (with erythromycin),"[2]; Table 7, P. aureginosa (ATCC 27853), erythromycin sensitization",10 µg/mL
same,FIC,"[2]; Table 11, Pseudomonas aeruginosa ATCC 27853, erythromycin (by order)",0.42
same,concentration required to inhibit bacterial growth with antibiotic,"[2]; Table 11, Pseudomonas aeruginosa ATCC 27853, erythromycin (by order) at 0.5, 1.0 or 3.0 μg/mL",2.3 µg/mL
same,MIC: concentration required to lower the MIC of erythromycin from 60 μg/mL to 1 μg/mL,"[3]; Table 5, E. coli (ATCC 25922)",1.5 µg/mL
same,MBC (with erythromycin),"[3]; Table 5, E. coli (ATCC 25922), erythromycin sensitization",1.5 µg/mL
same,FIC,"[3]; Table 11, Escherichia coli ATCC 25922, erythromycin (by order)",0.31
same,concentration required to inhibit bacterial growth with antibiotic,"[3]; Table 11, Escherichia coli ATCC 25922, erythromycin (by order) at 0.5, 1.0 or 3.0 μg/mL",0.38 µg/mL
same,MBC,[4],16 µg/mL
same,MIC,[4],2.2 µg/mL
same,MBC,"[5]; Table 4, E. coli (ATCC 25922)",4 µg/mL
same,MIC,"[5]; Table 4, E. coli (ATCC 25922)",2 µg/mL
same,MBC,[5]; [19],3.8 µg/mL
same,MIC,[5]; [19],1.4 µg/mL
same,MIC: concentration required to lower the MIC of erythromycin from 70 μg/mL to 1 μg/mL,[6],1 µg/mL
same,MBC (with erythromycin),[6]; erythromycin sensitization,3 µg/mL
same,MBC,[7],3.2 µg/mL
same,MIC,[7],0.6 µg/mL
same,MHC,[8],26 µg/mL
same,MIC: concentration required to lower the MIC of novobiocin from >500 μg/mL to 1 μg/mL,[9],6 µg/mL
same,MBC,[10],50 µg/mL
same,MIC,[10],11 µg/mL
same,MBC,[11],6.7 µg/mL
same,MIC,[11],3.0 µg/mL
same,MBC,[12],2.1 µg/mL
same,MIC,[12],2.0 µg/mL
same,MBC,[13]; [20],15 µg/mL
same,MIC,[13]; [20],6 µg/mL
same,MBC,[13]; [21],9.9 µg/mL
same,MIC,[13]; [21],5.9 µg/mL
same,MBC,[14],4 µg/mL
same,MIC,[14],2 µg/mL
same,MBC,[15],3.8 µg/mL
same,MIC,[15],2.2 µg/mL
C[C@H](CCCN(C)Cc1ccccc1)[C@H]1CC[C@H]2[C@@H]3[C@H](OC(=O)CN)C[C@@H]4C[C@H](OC(=O)CN)CC[C@]4(C)[C@H]3C[C@H](OC(=O)CN)[C@]12C.Cl.Cl.Cl.Cl [Compound 6],MIC,[16],85 µg/mL
same,MIC: concentration required to lower the MIC of erythromycin from 70 μg/mL to 1 μg/mL,[6],22 µg/mL
same,MIC,[14],65 µg/mL
same,a: concentration of cholic acid derivatives required to lower MIC of erythromycin to 1 μg/ML,[17],15 µg/mL
same,b: concentration of cholic acid derivatives required to lower MIC of novobiocin to 1 μg/ML,[18],40 µg/mL
C[C@H](CCCO)[C@H]1CC[C@H]2[C@@H]3[C@H](OC(=O)CN)C[C@@H]4C[C@H](OC(=O)CN)CC[C@]4(C)[C@H]3C[C@H](OC(=O)CN)[C@]12C [Compound 203a],MIC,[16],85 µg/mL
same,a: concentration of cholic acid derivatives required to lower MIC of erythromycin to 1 μg/ML,[17],18 µg/mL
same,b: concentration of cholic acid derivatives required to lower MIC of novobiocin to 1 μg/ML,[18],55 µg/mL
C[C@H](CCCO)[C@H]1CC[C@H]2[C@@H]3[C@H](OC(=O)CCN)C[C@@H]4C[C@H](OC(=O)CCN)CC[C@]4(C)[C@H]3C[C@H](OC(=O)CCN)[C@]12C [Compound 203b],MIC,[16],80 µg/mL
same,a: concentration of cholic acid derivatives required to lower MIC of erythromycin to 1 μg/ML,[17],4 µg/mL
same,b: concentration of cholic acid derivatives required to lower MIC of novobiocin to 1 μg/ML,[18],10 µg/mL
